In patent US20080261984A1, “Use of S,S-Reboxetine in the Treatment of Pain” (Pfizer Inc., priority 2004, published 2008):

Columns and labels:
[1] = patients receiving gabapentin; cited from earlier work
[2] = in vivo; cited from earlier work
[3] = in vivo; cited from earlier work; remark: listed apart in the source
anticholinergic binding = details: different animal models; cited from earlier work
monoamine oxidase (MAO) = details: cited from earlier work
norepinephrine reuptake = norepinephrine reuptake (Homo sapiens, UniProt P23975); details: cited from earlier work
Sequence of norepinephrine reuptake (P23975 whole entry): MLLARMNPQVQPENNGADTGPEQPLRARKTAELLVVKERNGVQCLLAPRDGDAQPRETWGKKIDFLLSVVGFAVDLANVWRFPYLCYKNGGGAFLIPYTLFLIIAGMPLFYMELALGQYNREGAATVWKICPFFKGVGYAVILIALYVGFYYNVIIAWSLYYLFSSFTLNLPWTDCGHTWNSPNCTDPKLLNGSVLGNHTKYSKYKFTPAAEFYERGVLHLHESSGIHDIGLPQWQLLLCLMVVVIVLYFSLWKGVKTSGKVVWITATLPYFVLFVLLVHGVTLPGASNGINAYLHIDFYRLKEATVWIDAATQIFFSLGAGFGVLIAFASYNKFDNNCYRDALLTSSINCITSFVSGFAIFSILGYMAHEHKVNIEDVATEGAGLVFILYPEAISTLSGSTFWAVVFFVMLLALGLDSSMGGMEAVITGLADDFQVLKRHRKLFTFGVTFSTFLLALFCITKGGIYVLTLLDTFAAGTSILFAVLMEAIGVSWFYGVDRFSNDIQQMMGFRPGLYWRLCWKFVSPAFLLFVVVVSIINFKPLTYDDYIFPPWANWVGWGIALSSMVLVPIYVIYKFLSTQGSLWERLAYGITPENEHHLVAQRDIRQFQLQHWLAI

dopamine reuptake = dopamine reuptake (Homo sapiens, UniProt Q01959); details: cited from earlier work
Sequence of dopamine reuptake (Q01959 whole entry): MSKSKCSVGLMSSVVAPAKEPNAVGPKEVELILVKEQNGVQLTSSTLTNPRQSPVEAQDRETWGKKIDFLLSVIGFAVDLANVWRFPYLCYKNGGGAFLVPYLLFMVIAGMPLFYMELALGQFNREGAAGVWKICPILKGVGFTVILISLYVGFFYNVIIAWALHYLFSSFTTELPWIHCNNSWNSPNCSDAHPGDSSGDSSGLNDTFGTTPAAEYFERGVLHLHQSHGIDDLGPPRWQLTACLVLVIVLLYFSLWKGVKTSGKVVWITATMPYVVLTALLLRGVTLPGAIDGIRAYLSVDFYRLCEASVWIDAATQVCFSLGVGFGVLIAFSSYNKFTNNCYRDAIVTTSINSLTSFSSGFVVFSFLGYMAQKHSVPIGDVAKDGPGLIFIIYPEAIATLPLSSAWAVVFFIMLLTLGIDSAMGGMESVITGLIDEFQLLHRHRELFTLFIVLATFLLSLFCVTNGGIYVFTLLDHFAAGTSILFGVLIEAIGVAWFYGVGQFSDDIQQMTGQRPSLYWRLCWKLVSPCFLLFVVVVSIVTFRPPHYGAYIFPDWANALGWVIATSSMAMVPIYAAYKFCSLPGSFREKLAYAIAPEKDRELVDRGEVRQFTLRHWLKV

[4] = treatment of pain in patients who do not respond to alpha-2-delta ligands such as gabapentin (PHN study); details: human, in vivo
Experimental: The following study is carried out to assess the efficacy of (S,S)-reboxetine in the treatment of patients with post-herpetic neuralgia (PHN) who fail to respond to gabapentin (GBP) treatment.
Study Population Male or female patients aged 18 years or older, with pain present more than 3 months after healing of the Herpes Zoster skin rash and who are also GBP treatment failures. No upper limit on the duration of PHN is imposed. GBP failures are defined as either: […]
Those patients who show no or minimal improvement on the Patient Global Impression of Change (PGIC) after treatment with GBP (1800 mg/day) administered for a period of […]
Those who are unable to tolerate doses of GBP less than or equal to 1800 mg/day.
Study Design Randomized, double-blind, placebo-controlled, 2-treatment (placebo and active), age-stratified study in patients aged 18 years or older, who suffer from PHN. The study is comprised of 3 phases: (i) 7-weeks screening including 4-weeks GBP treatment, (ii) 5-weeks randomized treatment, and (iii) 1-week follow-up period.
All patients who meet entry criteria initially enter a 1-week run-in period during which a daily pain diary will be maintained. Thereafter, if the severity of pain meets relevant criteria for inclusion in the study, patients enter a 4-week period during which they will receive GBP treatment. […]

Structure (SMILES): NCC1(CC(=O)O)CCCCC1 [gabapentin, 1-(aminomethyl)-cyclohexylacetic acid]
- patients noting at least a moderate improvement (score of 1 or 2) on the Patient Global Impression of Change [1]: Approximately 60%
- efficacy in the treatment of painful diabetic neuropathy [2]: efficacious

Structure (SMILES): CCOc1ccccc1OC(c1ccccc1)C1CNCCO1 (racemic) [reboxetine, (RR, SS)-2-[α-(2-ethoxyphenoxy)benzyl]morpholine]
- effect in the 8-OH-DPAT hypothermia test [3]: ineffective
- anticholinergic binding activity (anticholinergic binding): no anticholinergic binding activity
- monoamine oxidase (MAO) inhibitory activity (monoamine oxidase (MAO)): substantially devoid

Structure (SMILES): COc1ccc(C(CN(C)C)C2(O)CCCCC2)cc1 (stereo not drawn) [venlafaxine]
- norepinephrine reuptake inhibitory activity (norepinephrine reuptake): potent inhibitor
- dopamine reuptake inhibitory activity (dopamine reuptake): weak inhibitor

Structure (SMILES): CCOc1ccccc1O[C@@H](c1ccccc1)[C@@H]1CNCCO1 [(S,S)-reboxetine]
- efficacy in treating pain in patients who do not respond to alpha-2-delta ligands [4]: efficacious
- dopamine reuptake inhibitory activity (dopamine reuptake): no
